The values below come from ChEMBL document CHEMBL2073994, “The multidrug resistance-associated protein 1 transports methoxychlor and protects the seminiferous epithelium from injury” (Toxicol Lett, 2003).

The data set deals with Multidrug resistance-associated protein 1 (Homo sapiens, UniProt P33527). Put plainly: TP_TRANSPORTER: drug resistance in MRP1-expressing NIH/3T3 cells. Type of data set: functional, cell-based. Conditions: mouse, nih3t3.
Chain of Multidrug resistance-associated protein 1 (P33527 whole entry): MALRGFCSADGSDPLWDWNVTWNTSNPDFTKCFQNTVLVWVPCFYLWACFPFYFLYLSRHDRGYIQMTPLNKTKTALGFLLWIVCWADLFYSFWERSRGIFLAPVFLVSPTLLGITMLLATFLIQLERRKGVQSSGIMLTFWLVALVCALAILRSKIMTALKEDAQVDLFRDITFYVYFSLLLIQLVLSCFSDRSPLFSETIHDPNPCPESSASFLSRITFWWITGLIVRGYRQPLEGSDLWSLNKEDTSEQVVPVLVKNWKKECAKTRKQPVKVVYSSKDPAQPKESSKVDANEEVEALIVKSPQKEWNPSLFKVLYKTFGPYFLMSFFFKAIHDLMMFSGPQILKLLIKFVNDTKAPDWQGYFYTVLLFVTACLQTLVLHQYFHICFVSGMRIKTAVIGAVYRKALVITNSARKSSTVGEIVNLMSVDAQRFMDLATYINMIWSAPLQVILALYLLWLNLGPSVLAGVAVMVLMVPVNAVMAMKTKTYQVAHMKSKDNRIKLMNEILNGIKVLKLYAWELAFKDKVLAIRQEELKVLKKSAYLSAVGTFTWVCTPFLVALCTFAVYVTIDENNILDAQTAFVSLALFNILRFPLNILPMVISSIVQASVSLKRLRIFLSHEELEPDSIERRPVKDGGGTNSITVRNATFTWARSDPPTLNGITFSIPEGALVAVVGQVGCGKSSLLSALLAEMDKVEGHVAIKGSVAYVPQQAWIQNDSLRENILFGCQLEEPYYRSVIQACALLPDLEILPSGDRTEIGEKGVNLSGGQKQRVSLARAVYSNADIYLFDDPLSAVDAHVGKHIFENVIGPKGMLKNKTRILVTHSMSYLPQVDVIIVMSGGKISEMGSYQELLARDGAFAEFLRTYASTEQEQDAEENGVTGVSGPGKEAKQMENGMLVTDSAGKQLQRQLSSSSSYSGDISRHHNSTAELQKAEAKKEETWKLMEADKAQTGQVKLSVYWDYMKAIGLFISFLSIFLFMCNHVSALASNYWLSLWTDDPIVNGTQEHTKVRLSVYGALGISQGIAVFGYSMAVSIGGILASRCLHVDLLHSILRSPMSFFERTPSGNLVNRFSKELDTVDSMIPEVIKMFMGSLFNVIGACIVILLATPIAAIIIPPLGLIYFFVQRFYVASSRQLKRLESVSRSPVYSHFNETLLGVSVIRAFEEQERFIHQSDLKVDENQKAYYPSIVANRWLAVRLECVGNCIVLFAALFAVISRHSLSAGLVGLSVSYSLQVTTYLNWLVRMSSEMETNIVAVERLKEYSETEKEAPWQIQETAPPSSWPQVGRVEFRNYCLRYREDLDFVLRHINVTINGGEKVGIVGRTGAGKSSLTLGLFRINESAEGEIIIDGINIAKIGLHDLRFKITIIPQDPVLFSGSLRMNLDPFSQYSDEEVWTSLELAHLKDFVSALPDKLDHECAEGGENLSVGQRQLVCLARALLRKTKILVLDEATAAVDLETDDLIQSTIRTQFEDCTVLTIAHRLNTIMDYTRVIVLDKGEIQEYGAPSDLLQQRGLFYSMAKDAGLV
As to `COc1cccc2c1C(=O)c1c(O)c3c(c(O)c1C2=O)C[C@@](O)(C(=O)CO)C[C@@H]3O[C@H]1C[C@H](N)[C@H](O)[C@H](C)O1` [DOXORUBICIN], the Activity entry is “substrate []”. For `COc1ccc(C(c2ccc(OC)cc2)C(Cl)(Cl)Cl)cc1` [METHOXYCHLOR] the value was “substrate []”; for `COP(=S)(OC)Oc1ccc([N+](=O)[O-])c(C)c1` [FENITROTHION], “substrate []”. The result for `CC(C)OC(=O)Nc1cccc(Cl)c1` [CHLORPROPHAM] reads “substrate []”.
